Like-named read-outs stand apart in the source and are kept apart here.
Legend:
[1] = test system: acutely dissociated and purified rat OPCs; assay: Acute OL differentiation assay (MBP expression/cell, immunofluorescent image quantification); assay type: cell-based; conditions: sheet "All OLga data", relative to quetiapine; for activation at 0.4 µM: read-out: 0.4 uM (% Quet)
In short: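 Oligodendrocyte precursor cells were enriched from P6-P7 Sprague–Dawley rat brains by immunopanning (RAN-2 and GalC depletion, O4 selection), plated at 5000 cells/well in serum-free, mitogen-free differentiation media on PDL/laminin 96-well view plates, centrifuged at 200×g, and pre-incubated 1–2 h before test compounds were added in quadruplicate. On DIV4, cells were fixed, stained for MBP and DAPI, imaged automatically, and MBP expression per cell was quantified.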

[2] = test system: expanded OPCs; assay: cells; conditions: for viability at 0.1 µM / viability at 1 µM / viability at 10 µM: Rattus norvegicus, 72 h
In short: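 Expanded OPCs seeded at 10,000 cells/well in differentiation media, then exposed to NCC library compounds at 10, 1 and 0.1 µM (quadruplicate, 0.1% DMSO) for three days. Viability read as alamarBlue fluorescence (560/590 nm) after 4 h at 37 °C; tunicamycin 5 ng/ml served as toxicity control.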

[3] = Rattus norvegicus, test compound at 2 uM, NCC library screen, read-out: 2 uM (% Quet)
[4] = Rattus norvegicus, test compound at 10 uM, NCC library screen, read-out: 10 uM (% Quet)
[5] = read-out: 0.1 µM (% DMSO), alamarBlue viability, NCC library compound at 0.1 µM, sheet "All Tox data"
[6] = read-out: 1 µM (% DMSO), alamarBlue viability, NCC library compound at 1 µM, sheet "All Tox data"
[7] = read-out: 10 µM (% DMSO), alamarBlue viability, NCC library compound at 10 µM, sheet "All Tox data"
[8] = Rattus norvegicus, 2 uM test compound, read-out: OL differentiation, 2 uM (% Quet)
[9] = Rattus norvegicus, 10 uM test compound, read-out: OL differentiation, 10 uM (% Quet)
[10] = alamarBlue viability of expanded OPCs, compound at 0.1 µM, relative to DMSO control
[11] = alamarBlue viability of expanded OPCs, compound at 1 µM, relative to DMSO control
[12] = alamarBlue viability of expanded OPCs, compound at 10 µM, relative to DMSO control
[13] = Rattus norvegicus, test compound at 0.4 uM, NCC library screen
[14] = read-out: 0.1 µM (% DMSO), alamarBlue viability of expanded OPCs, compound at 0.1 µM, sheet All Tox data
[15] = read-out: 1 µM (% DMSO), alamarBlue viability of expanded OPCs, compound at 1 µM, sheet All Tox data
[16] = read-out: 10 µM (% DMSO), alamarBlue viability of expanded OPCs, compound at 10 µM, sheet All Tox data

| SMILES | activation at 2 µM [1, 3] [%] | viability at 0.1 µM [2, 5] [%] | viability at 1 µM [2, 6] [%] | viability at 10 µM [2, 7] [%] | activation at 2 µM [1, 8] [%] | activation at 10 µM [1, 9] [%] | viability at 0.1 µM [2, 14] [%] | viability at 1 µM [2, 15] [%] | viability at 10 µM [2, 16] [%] | also measured |
| --- | --- | --- | --- | --- | --- | --- | --- | --- | --- | --- |
| O=C1CCC(N2C(=O)c3ccccc3C2=O)C(=O)N1 (centres unmarked) [Thalidomide] | -9.1 | 110 | 92.4 | 99.3 | – | – | – | – | – | activation at 10 µM [1, 4]: -26.7% |
| CN(C)CCOC(C)(c1ccccc1)c1ccccn1 (centres unmarked) [Doxylamine] | – | 96 | 86.6 | 75 | -9.7 | 0.7 | – | – | – | – |
| CCCC(=O)O[C@]1(C(=O)COC(=O)CC)CC[C@H]2[C@@H]3CCC4=CC(=O)CC[C@]4(C)[C@H]3[C@@H](O)C[C@@]21C [Hydrocortisone buteprate] | 19.4 | – | – | – | – | – | – | – | – | activation at 10 µM [1, 4]: 13.5%; 0.1 µM (% DMSO) [2, 10]: 112.3 % DMSO; 1 µM (% DMSO) [2, 11]: 102.8 % DMSO; 10 µM (% DMSO) [2, 12]: 90.3 % DMSO |
| CCCN1C[C@H](CSC)C[C@@H]2c3cccc4[nH]cc(c34)C[C@H]21 [Pergolide] | -15.7 | 100 | 83.6 | 41 | – | – | – | – | – | activation at 0.4 µM [1, 13]: -8.9% |
| CSc1ccc2c(c1)N(CCC1CCCCN1C)c1ccccc1S2 (centres unmarked) [Thioridazine] | – | 53.8 | 24.4 | 9.4 | – | – | – | – | – | activation at 0.08 µM ([1]; Rattus norvegicus, test compound at 0.08 uM, NCC library screen, read-out: 0.08 uM (% Quet)): -4.7%; activation at 0.4 µM [1, 13]: -158% |
| C[C@@H](c1ncncc1F)[C@](O)(Cn1cncn1)c1ccc(F)cc1F [Voriconazole] | – | – | – | – | 4.8 | 10 | 99.1 | 97.4 | 96 | – |
| NC12CC3CC(CC(C3)C1)C2 [Amantadine] | -21.4 | – | – | – | – | – | – | – | – | activation at 10 µM [1, 4]: -19.9%; 0.1 µM (% DMSO) [2, 10]: 89.6 % DMSO; 1 µM (% DMSO) [2, 11]: 86.9 % DMSO; 10 µM (% DMSO) [2, 12]: 77.6 % DMSO |
| C[C@@H]1C[C@H]2[C@@H]3C[C@H](F)C4=CC(=O)C=C[C@]4(C)[C@@]3(F)[C@@H](O)C[C@]2(C)[C@@]1(O)C(=O)SCF [Fluticasone] | – | – | – | – | 14.2 | -38.8 | 103 | 106 | 112 | – |
| CCCCCCCCCOc1ccc2[nH]cc(CCN)c2c1 [5-Nonyloxytryptamine] | – | – | – | – | – | – | – | – | – | 0.08 uM (% Quet) ([1]; test compound at 0.08 uM, NCC library screen): -24.6 % Quet; 0.4 uM (% Quet) ([1]; test compound at 0.4 uM, NCC library screen): -339.9 % Quet; 0.1 µM (% DMSO) ([2]; alamarBlue viability, NCC library compound at 0.1 µM, sheet "All Tox data"): 59.8 % DMSO; 1 µM (% DMSO) ([2]; alamarBlue viability, NCC library compound at 1 µM, sheet "All Tox data"): 9.3 % DMSO; 10 µM (% DMSO) ([2]; alamarBlue viability, NCC library compound at 10 µM, sheet "All Tox data"): 8.5 % DMSO |
| CC(C)NCC(O)c1ccc(NS(C)(=O)=O)cc1 (centres unmarked) [Sotalol] | – | – | – | – | -13.4 | -22.5 | 96.2 | 89.5 | 107 | – |
| NNC(=O)c1ccncc1 [Isoniazid] | -8.7 | – | – | – | – | – | – | – | – | activation at 10 µM [1, 4]: 3.1%; 0.1 µM (% DMSO) [2, 10]: 98.2 % DMSO; 1 µM (% DMSO) [2, 11]: 98.4 % DMSO; 10 µM (% DMSO) [2, 12]: 66.3 % DMSO |
| CCCCC(=O)O[C@H]1CC[C@H]2[C@@H]3CCc4cc(O)ccc4[C@H]3CC[C@]12C [Estradiol valerate] | – | 93.2 | 93.5 | 9.6 | – | – | – | – | – | activation at 0.4 µM [1, 13]: -65.1% |
| Cc1ncc([N+](=O)[O-])n1CC(C)O (centres unmarked) [Secnidazole] | – | – | – | – | 8.1 | 2.5 | 97.5 | 99.6 | 110 | – |
| C#C[C@]1(O)CC[C@H]2[C@@H]3CCC4=CC(=O)CC[C@@H]4[C@H]3CC[C@@]21CC [Levonorgestrel] | – | – | – | – | 7.5 | -8.6 | 97.5 | 88 | 91.5 | – |
| Oc1ccc(C2CNCCc3c2cc(O)c(O)c3Cl)cc1 (centres unmarked) [Fenoldopam] | – | – | – | – | -32.3 | -79.8 | 106 | 97.4 | 75.9 | – |

Source: PMC5011342, “A high throughput drug screening assay to identify compounds that promote oligodendrocyte differentiation using acutely dissociated and purified oligodendrocyte precursor cells” (BMC Research Notes, 2016)
